PubChem BioAssay (NCI)
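Protocol summary: plate cells (96-well), add compound at 5 concentrations, incubate 48 h, interpolate endpoints linearly. TGI: total growth inhibition.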

How the values were obtained:
Assay in all cases: NCI tumour cell line growth inhibition, 48 h
[1] = test system: 786-0 renal
[2] = test system: HOP-92 NSCLC
[3] = test system: OVCAR-5 ovarian
[4] = test system: UACC-257 melanoma
[5] = test system: UO-31 renal
[6] = test system: HCT-116 colon
[7] = test system: MALME-3M melanoma
[8] = test system: IGROV1 ovarian
[9] = test system: SF-268 CNS
[10] = test system: COLO 205 colon

Row | SMILES | TGI [1] [µM] | TGI [2] [µM] | TGI [3] [µM] | TGI [4] [µM] | TGI [5] [µM] | TGI [6] [µM] | TGI [7] [µM] | TGI [8] [µM] | TGI [9] [µM] | TGI [10] [µM]
1 | CN1CCN(C(=O)c2cn(Cc3cncn3Cc3ccc4c(c3)OCO4)cc2-c2cccc3ccccc23)CC1 | > 86 | 57.8 | > 100 | 42.7 | > 100 | > 100 | 26.6 | > 100 | 66.5 | 49.9
2 | C/C(=N\Nc1nc2ccccc2s1)c1ccncn1 | > 72.4 | > 30.1 | > 100 | > 100 | 10.2 | 16.3 | 20.3 | 4.39 | 9.56 | 11.1
3 | CC1=C(C)C(=O)C(C2=CC(=O)c3ccccc3C2=O)=C(C2=CC(=O)c3ccccc3C2=O)C1=O | > 58.1 | > 83.3 | > 100 | 28.6 | 25.4 | > 100 | 4.33 | 29.8 | > 55.1 | 9.77
4 | O=C1NC(O)c2cc3ccccc3cc2O1 (stereo not given) | > 100 | 90.7 | > 100 | > 100 | > 100 | 51.1 | > 100 | > 100 | > 100 | > 100
5 | Cc1c(C)c2c(c(N)c1C#N)C(=O)N(N)C2=O | > 100 | > 100 | > 100 | > 100 | > 100 | > 100 | > 100 | > 100 | > 100 | > 100
6 | Oc1ccc(C(O)C2CCCCN2)cc1O (stereo not given) | 35.2 | > 100 | > 100 | > 100 | > 100 | > 100 | > 100 | > 100 | > 100 | > 100
7 | C[n+]1cccc2ccc3cccnc3c21 | > 100 | > 100 | > 100 | > 100 | > 100 | > 100 | 49.9 | > 100 | 55.8 | 70
8 | COc1cc2c(/C=C3/C(=O)Nc4ccccc43)c(Cl)n(Cc3ccc(Cl)cc3)c2cc1C | 1.4 | 39.5 | 8.84 | 8.43 | 17.6 | 0.824 | 14.5 | 16 | 21.3 | 0.665
9 | COP(=O)(OC)OCN(C)CC/C=C(\C)CC/C=C(\C)CCC=C(C)C | 31.3 | 34.8 | 39.1 | 19.2 | 28.3 | 25.9 | 28.2 | 25.8 | 30.8 | 34
10 | Cn1/c(=N\N=C2\C=C3CCCCC3(C)CC2)sc2ccccc21 (stereo not given) | > 100 | > 100 | > 100 | > 100 | > 100 | > 100 | > 100 | > 100 | > 100 | > 100
11 | ClC1=NN=C(c2c[nH]c3ccccc23)CC1NCc1ccccc1 (stereo not given) | > 100 | > 100 | > 100 | > 100 | > 100 | > 100 | > 100 | > 100 | > 100 | > 100
12 | COC(=N)C1(C#N)NC(c2ccsc2)C(C#N)(C#N)NC1c1ccsc1 (stereo not given) | > 100 | > 100 | > 100 | > 100 | > 100 | > 100 | > 100 | > 100 | > 100 | > 100
13 | CCOC(=O)c1c(-c2ccc(OC)cc2)ccn1C | > 10 | > 10 | > 10 | > 10 | > 10 | > 10 | > 10 | > 10 | > 10 | > 10
14 | Clc1ccc2c(c1)N(CCCN1CCCC13CCCCC3)c1ccccc1S2 | 23.7 | 38.2 | 36.3 | 24.4 | 22.4 | 30.7 | 28.1 | 30.3 | > 58.7 | > 54.9
15 | CC(=O)CC1(CBr)Nc2ccc([N+](=O)[O-])cc2NC1=O (stereo not given) | > 100 | > 100 | > 100 | > 100 | > 100 | > 100 | > 100 | > 100 | > 100 | > 100
16 | C[C@]12CC[C@H]3[C@@H](CC=C4C[C@@H](N5CCCC5)CC[C@@]43C)[C@@H]1C[C@H](N1CCCCC1)[C@@H]2O | > 100 | > 100 | > 100 | 83.8 | > 100 | > 100 | > 100 | > 100 | > 100 | > 100
17 | O=c1c2cc(Br)cc(Br)c2[nH]c(=S)n1-c1ccc(N=Nc2ccc(O)c3cccnc23)cc1 | > 100 | 41.6 | > 100 | > 100 | > 100 | > 100 | 43.2 | 34.5 | 57.5 | > 100
